Assay results as given in US20250296938A1, “Compounds that Interact with the Ras Superfamily for the Treatment of Cancers, Inflammatory Diseases, Rasopathies, and Fibrotic Disease” (SHY Therapeutics, LLC, priority 2018, published 2025).

Tests used:
MAPK phosphorylation [1] = assay: Western MAPK cell-based phosphorylation assay, BxPC3; details: Homo sapiens; for inhibition at 10 µM: BXPC-3, 10 μM, 6 hours, EGF stimulation
Description: (§1) Cell lines: Human NSCLC cells NCI-H1975 and NCI-H1299, and tumor-derived pancreatic cancer cell lines Panc-1, MIA-PaCa-2, and BxPC3, were all purchased from American Type Culture Collection and grown in complete RPMI medium (BxPC3, NCI-H1975 and NCI-H1299) or DMEM-High Glucose (Panc1 and MIA-PaCa-2), supplemented with penicillin (100 U/mL), streptomycin (100 μg/mL), and 10% heat-inactivated FBS at 37° C. in a humidified incubator with 5% CO2.
(§2) Method: Cells were plated at 350000 cells/well density in a 12-well plate, allowed 3 hours to adhere to the plate, then starved in the appropriate medium in the presence of 0.5% FBS overnight. The small molecules to be tested were added to the cells in the final concentration of 10 μM in the presence of 0.3% DMSO for 6 hours incubation at 37° C. For IC50 value determination, serial dilutions of compounds were added to cells under the same conditions. Next, cells were stimulated with 1.5 ng/ml EGF for 15 minutes then cells were lysed with lysis buffer containing 1% Triton X-100, EDTA, and Halt™ Protease & Phosphatase Inhibitor Cocktail (Thermo Scientific). Protein concentration was assessed by BCA protein assay (Thermo Scientific). Phosphorylation level of MAPK was determined by western blot.
(§3) Western blot protocol: Equal amounts of protein (15-50 μg) were separated by SDS-PAGE and transferred to nitrocellulose membranes (Invitrogen by Thermo Fisher Scientific). The membrane was stained with Ponceau S Stain (Boston BioProducts) to verify uniform protein loading. Membranes were blocked with 10% milk and phosphorylation levels of MAPK were assessed by incubating overnight at 4° C. with anti-phospho-p44/42 (Thr202/Tyr204) antibody (Cell Signaling) followed by HRP-conjugated secondary antibody (Jackson Immunoresearch, West Grove, PA). Bands were incubated in Amersham ECL Prime Western Blotting Detection Reagent (GE Healthcare) and visualized using the ChemiDoc MP imaging system (Bio-Rad).

MAPK phosphorylation [2] = assay: Western MAPK cell-based phosphorylation assay, MIA PaCa-2; details: Homo sapiens; for inhibition at 10 µM: 6 hours, EGF stimulation
Description: as §1, §2, §3

MAPK phosphorylation [3] = assay: Western MAPK cell-based phosphorylation assay, NCI H1975; details: Homo sapiens; for inhibition at 10 µM: 6 hours, EGF stimulation
Description: as §1, §2, §3

MAPK phosphorylation [4] = assay: Western MAPK cell-based phosphorylation assay, NCI H1299; details: Homo sapiens; for inhibition at 10 µM: 6 hours, EGF stimulation
Description: as §1, §2, §3

AKT phosphorylation = assay: Western AKT cell-based phosphorylation assay, PANC-1; details: Homo sapiens, 6 hours, EGF stimulation, PANC-1
Outline: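 PANC-1 cells, serum-starved overnight in 0.5% FBS, were treated with compound at 10 μM (0.3% DMSO) for 6 h at 37 °C and then stimulated with 1.5 ng/ml EGF for 15 min. Lysates (15–50 μg) were immunoblotted for phospho-Akt Ser473, with ECL detection.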

MAPK phosphorylation [5] = assay: MAPK cell-based phosphorylation assay (ELISA or Western), PANC-1; details: Homo sapiens, PANC-1; for inhibition at 10 µM: 6 hours, EGF stimulation
Outline: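 Serum-starved (0.5% FBS overnight) cells given compound at 10 μM or serial dilutions (0.3% DMSO) for 6 h at 37 °C, then 1.5 ng/mL EGF for 15 min. Phospho-MAPK read by fixed-cell ELISA (fluorescence, 595 nm) or by Western blot of lysates with anti-phospho-p44/42 (Thr202/Tyr204).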

[6] = system: BxPC3 pancreatic cancer cell line; assay: Cell proliferation assay (DAPI); type: cell-based; details: Homo sapiens, BXPC-3
Outline: (§4)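 NCI-H1975 cells in RPMI; PANC-1 and MIA PaCa-2 in DMEM-high glucose; BxPC3 in RPMI; all with 10% FBS. Compounds at 10 µM final (or serial dilutions for IC50), 0.3% DMSO, 2–4 days at 37 °C. Fixed, DAPI-stained, fluorescence read at 358/461 nm to give proliferation inhibition.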

[7] = system: PANC-1 pancreatic cancer cell line; assay: Cell proliferation assay (DAPI); type: cell-based; details: Homo sapiens
Outline: as §4

[8] = system: MIA PaCa-2 pancreatic cancer cell line; assay: Cell proliferation assay (DAPI); type: cell-based; details: Homo sapiens, MIA PaCa-2; for inhibition at 10 µM: 2-4 days, read-out: % Inhibition of cell proliferation, MIA PaCa-2 % inh
Outline: as §4

[9] = system: NCI H1975 non-small-cell lung cancer cell line; assay: Cell proliferation assay (DAPI); type: cell-based; details: Homo sapiens
Outline: as §4

[10] = system: NCI H1299 non-small-cell lung cancer cell line; assay: Cell proliferation assay (DAPI); type: cell-based; details: Homo sapiens

Structure (SMILES) | inhibition at 10 µM (MAPK phosphorylation [1]) [%] | inhibition at 10 µM (MAPK phosphorylation [2]) [%] | inhibition at 10 µM (MAPK phosphorylation [3]) [%] | inhibition at 10 µM (MAPK phosphorylation [4]) [%] | inhibition at 10 µM (AKT phosphorylation) [%] | inhibition at 10 µM (MAPK phosphorylation [5]) [%] | IC50 [6] [nM] | IC50 [7] [nM] | IC50 [8] [nM] | inhibition at 10 µM [8] [%] | IC50 [9] [nM] | IC50 [10] [nM] | other results
CO[C@H]1CCC(Nc2nc(-c3nccn3C)nc3sc(-c4ccn(C)n4)c(-c4ccccc4)c23)C1 (stereo partly shown) [drawing 406] | 76 to 100 | 76 to 100 | 76 to 100 | 76 to 100 | 76 to 100 | 76 to 100 |  |  |  |  |  |  | 
CO[C@@H]1CCC(Nc2nc(-c3nccn3C)nc3sc(-c4ccn(C)n4)c(-c4ccccc4)c23)C1 (stereo partly shown) [drawing 407] | 0 | 0 | 26 to 50 | 26 to 50 | 0 | 76 to 100 |  |  |  |  |  |  | 
COCC1CCN(c2nc(-c3nccn3C)nc3sc(-c4ccn(C)n4)c(-c4ccccc4)c23)C1 (stereo not shown) [drawing 408] |  |  |  | 26 to 50 | 0 | 76 to 100 |  |  |  |  |  |  | 
COCCNc1nc(-c2nccn2C)nc2sc(-c3ccccc3Cl)c(-c3ccc(OC)cc3)c12 [drawing 418] | 0 | 76 to 100 | 0 | 0 | 0 | 76 to 100 |  |  |  |  |  |  | 
COCCNc1nc(-c2nccn2C)nc2sc(-c3cccc(OC)c3)c(-c3ccc(OC)cc3)c12 [drawing 419] | 0 | 76 to 100 | 76 to 100 | 0 | 0 | 76 to 100 |  |  |  |  |  |  | 
COCCNc1nc(-c2nccn2C)nc2sc(-c3cccc(OC)c3Cl)c(-c3ccc(OC)cc3)c12 [drawing 420] | 1 to 25 | 76 to 100 | 76 to 100 | 0 | 26 to 50 | 76 to 100 |  |  |  |  |  |  | 
COCCNc1nc(-c2cn(C)cn2)nc2sc(-c3ccccc3Cl)c(-c3ccc(OC)cc3)c12 [drawing 422] | 26 to 50 | 76 to 100 | 76 to 100 | 0 | 0 | 76 to 100 |  |  |  |  |  |  | 
COCCNc1nc(-c2nccn2C)nc2sc(-c3cccc(OC)c3Cl)c(-c3ccccc3)c12 [drawing 425] | 76 to 100 | 76 to 100 | 76 to 100 | 76 to 100 | 76 to 100 | 76 to 100 |  |  |  |  |  |  | 
COCCNc1nc(-c2nccn2C)nc2sc(-c3cccc(OC)c3Cl)c(-c3ccccc3)c12 [drawing 472] |  |  |  |  |  |  |  |  |  |  |  |  | IC50 (MAPK phosphorylation [1]; BXPC-3): > 1000 nM; IC50 (MAPK phosphorylation [2]): 750 to 1000 nM; IC50 (MAPK phosphorylation [3]): > 1000 nM; IC50 (MAPK phosphorylation [4]): > 1000 nM; IC50 (MAPK phosphorylation [5]): 750 to 1000 nM
CO[C@H]1CCC(Nc2nc(-c3nccn3C)nc3sc(-c4ccn(C)n4)c(-c4ccccc4)c23)C1 (stereo partly shown) [drawing 474] |  |  |  |  |  |  |  |  |  |  |  |  | IC50 (MAPK phosphorylation [2]): > 1000 nM; IC50 (MAPK phosphorylation [3]): > 1000 nM; IC50 (MAPK phosphorylation [5]): 750 to 1000 nM
COCCCNc1nc(-c2nccn2C)nc2sc(-c3ccn(C)n3)c(-c3ccccc3)c12 [drawing 542] |  |  |  |  |  |  | 750 to 1000 | 750 to 1000 | > 1000 | 76 to 100 |  |  | 
COCC(C)Nc1nc(-c2nccn2C)nc2sc(-c3ccn(C)n3)c(-c3ccccc3)c12 (stereo not shown) [drawing 544] |  |  |  |  |  |  | 750 to 1000 | 750 to 1000 | > 1000 | 76 to 100 |  |  | 
COC1CCN(c2nc(-c3nccn3C)nc3sc(-c4ccn(C)n4)c(-c4ccccc4)c23)C1 (stereo not shown) [drawing 545] |  |  |  |  |  |  | > 1000 | 750 to 1000 | > 1000 | 76 to 100 |  |  | 
Cn1ccc(-c2sc3nc(-c4nccn4C)nc(NCC4CCOC4)c3c2-c2ccccc2)n1 (stereo not shown) [drawing 547] |  |  |  |  |  |  | > 1000 | > 1000 | > 1000 | 76 to 100 |  |  | 
CO[C@H]1CCC(Nc2nc(-c3nccn3C)nc3sc(-c4ccn(C)n4)c(-c4ccccc4)c23)C1 (stereo partly shown) [drawing 548] |  |  |  |  |  |  | 500 to 749 | 500 to 749 | 500 to 749 | 76 to 100 | 500 to 749 | 750 to 1000 | 
CO[C@@H]1CCC(Nc2nc(-c3nccn3C)nc3sc(-c4ccn(C)n4)c(-c4ccccc4)c23)C1 (stereo partly shown) [drawing 549] |  |  |  |  |  |  | 750 to 1000 | 750 to 1000 | 750 to 1000 | 76 to 100 | 750 to 1000 | 750 to 1000 | 
COCC1CCN(c2nc(-c3nccn3C)nc3sc(-c4ccn(C)n4)c(-c4ccccc4)c23)C1 (stereo not shown) [drawing 550] |  |  |  |  |  |  | 750 to 1000 | 500 to 749 | 750 to 1000 | 76 to 100 | > 1000 | > 1000 | 
COCC(C)Nc1nc(-c2nccn2C)nc2sc(-c3ccccc3Cl)c(-c3cscn3)c12 (stereo not shown) [drawing 556] |  |  |  |  |  |  |  |  |  | 76 to 100 | > 1000 | > 1000 | 
COCC(C)Nc1nc(-c2nccn2C)nc2sc(-c3cccc(OC)c3)c(-c3cscn3)c12 (stereo not shown) [drawing 558] |  |  |  |  |  |  |  | 750 to 1000 |  | 76 to 100 | > 1000 | > 1000 | 
COCCNc1nc(-c2nccn2C)nc2sc(-c3cccc(OC)c3Cl)c(-c3ccc(OC)cc3)c12 [drawing 562] |  |  |  |  |  |  | 750 to 1000 | 500 to 749 | 750 to 1000 | 76 to 100 | 750 to 1000 | 750 to 1000 | 
